Data as given in BindingDB's records for doi:10.1074/jbc.M113.521955 (Albert Einstein College of Medicine, 2013).
pKi: −log10 of the molar value.

Each compound was assayed against T1, Orotate phosphoribosyltransferase (Plasmodium falciparum (isolate 3D7), UniProt Q8I3Y0) (assay: Inhibition Assay). Conditions: pH 8; 25 °C.
T1 sequence (Q8I3Y0 whole entry): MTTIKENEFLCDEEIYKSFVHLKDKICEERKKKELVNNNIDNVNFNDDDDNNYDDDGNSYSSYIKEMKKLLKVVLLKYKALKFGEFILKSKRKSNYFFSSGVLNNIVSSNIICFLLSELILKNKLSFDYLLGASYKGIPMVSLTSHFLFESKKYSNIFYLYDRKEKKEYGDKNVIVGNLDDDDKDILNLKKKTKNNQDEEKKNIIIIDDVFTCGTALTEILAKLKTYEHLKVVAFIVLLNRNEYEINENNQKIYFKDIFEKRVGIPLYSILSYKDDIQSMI
Description: (§1) In all cases, the inhibitor concentration was at least 10 times the enzyme concentration. Reaction rates were monitored through the absorbance increase at 295 nm to give an extinction coefficient of 3.67 mM-1 cm-1 [Abdo et al., Org. Lett., 12:2982-2985].

SMILES | pKi
O=[N+]([O-])c1ccc(O[C@@H]2O[C@H](CO)C(O)C2O)cc1 (stereo not given in full) [OPRT inhibitor, 1] | 6.72
O=[N+]([O-])c1ccc(O[C@@H]2O[C@H](COP(=O)(O)O)C(O)C2O)cc1 (stereo not given in full) [OPRT inhibitor, 2] | 7.40
O=c1[nH]c(=O)n(C[C@@H]2N[C@H](CO)C(O)C2O)cc1Br (stereo not given in full) [OPRT inhibitor, 3] | 6.46
O=c1[nH]c(=O)n(C[C@@H]2N[C@H](COP(=O)(O)O)C(O)C2O)cc1Br (stereo not given in full) [OPRT inhibitor, 4] | 6.43
N#Cc1cc(=O)[nH]c(=O)n1C[C@@H]1N[C@H](CO)C(O)C1O (stereo not given in full) [OPRT inhibitor, 5] | 6.52
N#Cc1cc(=O)[nH]c(=O)n1C[C@@H]1N[C@H](COP(=O)(O)O)C(O)C1O (stereo not given in full) [OPRT inhibitor, 6] | 6.46
O=C1c2cc(=O)[nH]c(=O)n2C[C@H]2C(O)C(O)[C@@H](CO)N12 (stereo not given in full) [OPRT inhibitor, 7] | 6.57
O=C1c2cc(=O)[nH]c(=O)n2C[C@H]2C(O)C(O)[C@@H](COP(=O)(O)O)N12 (stereo not given in full) [OPRT inhibitor, 8] | 6.77
O=c1[nH]c(=O)n(CCN2CC(O)C(O)[C@H]2CO)cc1Br (stereo not given in full) [OPRT inhibitor, 9] | 6.57
O=C(O)c1cc(=O)[nH]c(=O)n1CCN1CC(O)C(O)[C@H]1CO (stereo not given in full) [OPRT inhibitor, 10] | 6.16
O=c1[nH]c(=O)n(CCN2CC(O)[C@@H](CO)C2)cc1Br (stereo not given in full) [OPRT inhibitor, 11] | 5.89
O=C(O)c1ccncc1[C@@H]1N[C@H](COP(=O)(O)O)C(O)C1O (stereo not given in full) [OPRT inhibitor, 12] | 4.81
O=C(O)c1[nH]c(=O)[nH]c(=O)c1CN1CCCC1 [OPRT inhibitor, 13] | 6.33
O=C(O)c1[nH]c(=O)[nH]c(=O)c1CN1CC(O)[C@@H](CO)C1 (stereo not given in full) [OPRT inhibitor, 14] | 6.66
O=C(O)c1[nH]c(=O)[nH]c(=O)c1CN1CC(O)[C@@H](COP(=O)(O)O)C1 (stereo not given in full) [OPRT inhibitor, 15] | 6.30
O=[N+]([O-])c1ccc([C@@H]2N[C@H](CO)C(O)C2O)cc1 (stereo not given in full) [OPRT inhibitor, 16] | 6.32
O=[N+]([O-])c1ccc(CN2CC(O)[C@@H](CO)C2)cc1 (stereo not given in full) [OPRT inhibitor, 17] | 6.12
O=[N+]([O-])c1ccc(CCN2CC(O)[C@@H](CO)C2)cc1 (stereo not given in full) [OPRT inhibitor, 18] | 6.24
O=[N+]([O-])c1ccc(CNC(CO)CO)cc1 [OPRT inhibitor, 19] | 6.30
O=[N+]([O-])c1ccc(CCNC(CO)CO)cc1 [OPRT inhibitor, 20] | 6.29

These compounds were tested against T2, Uridine 5'-monophosphate synthase (Homo sapiens, UniProt P11172) (assay: Inhibition Assay). Conditions: pH 8; 25 °C.
T2 sequence (P11172 whole entry): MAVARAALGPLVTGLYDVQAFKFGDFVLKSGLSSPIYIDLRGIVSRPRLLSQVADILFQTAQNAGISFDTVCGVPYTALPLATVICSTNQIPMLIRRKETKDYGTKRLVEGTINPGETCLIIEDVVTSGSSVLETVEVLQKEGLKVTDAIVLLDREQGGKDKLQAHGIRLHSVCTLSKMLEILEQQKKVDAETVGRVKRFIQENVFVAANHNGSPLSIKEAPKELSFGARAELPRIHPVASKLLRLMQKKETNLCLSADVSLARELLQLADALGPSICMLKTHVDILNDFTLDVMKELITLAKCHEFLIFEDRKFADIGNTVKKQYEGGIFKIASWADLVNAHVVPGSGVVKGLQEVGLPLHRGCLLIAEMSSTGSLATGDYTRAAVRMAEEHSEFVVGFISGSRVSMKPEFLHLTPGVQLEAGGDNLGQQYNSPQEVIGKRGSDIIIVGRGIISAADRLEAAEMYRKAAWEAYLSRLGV
Description: as §1

SMILES | pKi
O=[N+]([O-])c1ccc(O[C@@H]2O[C@H](CO)C(O)C2O)cc1 (stereo not given in full) [OPRT inhibitor, 1] | 6.92
O=[N+]([O-])c1ccc(O[C@@H]2O[C@H](COP(=O)(O)O)C(O)C2O)cc1 (stereo not given in full) [OPRT inhibitor, 2] | 7.39
O=c1[nH]c(=O)n(C[C@@H]2N[C@H](CO)C(O)C2O)cc1Br (stereo not given in full) [OPRT inhibitor, 3] | 6.28
O=c1[nH]c(=O)n(C[C@@H]2N[C@H](COP(=O)(O)O)C(O)C2O)cc1Br (stereo not given in full) [OPRT inhibitor, 4] | 6.70
N#Cc1cc(=O)[nH]c(=O)n1C[C@@H]1N[C@H](CO)C(O)C1O (stereo not given in full) [OPRT inhibitor, 5] | 6.44
N#Cc1cc(=O)[nH]c(=O)n1C[C@@H]1N[C@H](COP(=O)(O)O)C(O)C1O (stereo not given in full) [OPRT inhibitor, 6] | 6.85
O=C1c2cc(=O)[nH]c(=O)n2C[C@H]2C(O)C(O)[C@@H](CO)N12 (stereo not given in full) [OPRT inhibitor, 7] | 6.96
O=C1c2cc(=O)[nH]c(=O)n2C[C@H]2C(O)C(O)[C@@H](COP(=O)(O)O)N12 (stereo not given in full) [OPRT inhibitor, 8] | 7.05
O=c1[nH]c(=O)n(CCN2CC(O)C(O)[C@H]2CO)cc1Br (stereo not given in full) [OPRT inhibitor, 9] | 7.10
O=C(O)c1cc(=O)[nH]c(=O)n1CCN1CC(O)C(O)[C@H]1CO (stereo not given in full) [OPRT inhibitor, 10] | 6.54
O=c1[nH]c(=O)n(CCN2CC(O)[C@@H](CO)C2)cc1Br (stereo not given in full) [OPRT inhibitor, 11] | 6.28
O=C(O)c1ccncc1[C@@H]1N[C@H](COP(=O)(O)O)C(O)C1O (stereo not given in full) [OPRT inhibitor, 12] | 5.37
O=C(O)c1[nH]c(=O)[nH]c(=O)c1CN1CCCC1 [OPRT inhibitor, 13] | 6.60
O=C(O)c1[nH]c(=O)[nH]c(=O)c1CN1CC(O)[C@@H](CO)C1 (stereo not given in full) [OPRT inhibitor, 14] | 7.08
O=C(O)c1[nH]c(=O)[nH]c(=O)c1CN1CC(O)[C@@H](COP(=O)(O)O)C1 (stereo not given in full) [OPRT inhibitor, 15] | 6.62
O=[N+]([O-])c1ccc([C@@H]2N[C@H](CO)C(O)C2O)cc1 (stereo not given in full) [OPRT inhibitor, 16] | 6.64
O=[N+]([O-])c1ccc(CN2CC(O)[C@@H](CO)C2)cc1 (stereo not given in full) [OPRT inhibitor, 17] | 6.70
O=[N+]([O-])c1ccc(CCN2CC(O)[C@@H](CO)C2)cc1 (stereo not given in full) [OPRT inhibitor, 18] | 6.64
O=[N+]([O-])c1ccc(CNC(CO)CO)cc1 [OPRT inhibitor, 19] | 6.82
O=[N+]([O-])c1ccc(CCNC(CO)CO)cc1 [OPRT inhibitor, 20] | 6.92
